For 6 molecules, EC50, AC50 and IC50 results are on record in ChEMBL document CHEMBL1201862, “PubChem BioAssay data set” (2004).

SMILES strings stand for the structures. Activity calls are given as the source filed them.

Assay [1] concerns the target T1, Endoribonuclease toxin MazF (Escherichia coli K-12, UniProt P0AE70).
T1 sequence (P0AE70 whole entry): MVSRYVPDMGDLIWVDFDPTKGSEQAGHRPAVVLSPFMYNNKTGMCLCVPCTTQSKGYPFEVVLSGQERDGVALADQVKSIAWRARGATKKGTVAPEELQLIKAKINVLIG
The experiment in a line: MazF toxin RNase activators, dose response, biochemical, fluorescence, single-stranded RNA substrate, uHTS hits (AID 588481). Format: functional.

Assay [2] addresses T1, Endoribonuclease toxin MazF. The experiment in a line: fluorescent RNA oligo signal without MazF, dose response, counter-screen for MazEF activator project, biochemical, fluorescence, single-stranded RNase substrate (AID 588502). Format: functional. (In general: A counterscreen serves to expose hits that act by an unwanted route or on another target.)
For assay [3], the target named is UDP-galactopyranose mutase (Mycobacterium tuberculosis, UniProt P9WIQ1). The assay can be described thus: Inhibitors of Mycobacterium tuberculosis UDP-galactopyranose mutase (UGM) enzyme Measured in Biochemical System Using Plate Reader - 2105-02_Inhibitor_Dose_CherryPick_Activity. [Related pubchem assays (depositor defined):AID504439].
A short description of assay [4]: inhibitors of Trypanosoma cruzi host-cell infection, confirmation, beta-gal luminescence, NIH3T3 host cells (AID 2630). It counts as functional, cell-based. The note with it: Mus musculus.
Assay [5] in a line: Luminescence Cell-Based Secondary HTS screen to identify cytotoxic compounds of NIH3T3 cells. [Related pubchem assays: 1885, 1968 ]. Format: functional.
Assay [6] is described as follows: inhibitors of intracellular T. cruzi replication, confirmation, NIH3T3 host cells, beta-gal luminescence (AID 2044).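 Further: intracellular parasites grown in NIH/3T3 mouse fibroblasts as host cells; luminescent beta-galactosidase reporter signal from transgenic T. cruzi replicating inside host cells; inhibitors lower the luminescence signal.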 It counts as functional, cell-based.
Assay [7] can be described thus: cytotoxicity toward NIH3T3 fibroblasts, dose response, counter-screen, cell-based, ATP luminescence, mouse fibroblasts (AID 2010).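 Further: cells exposed to compound for about 90 hours before reading.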 Format: functional.
A short description of assay [8]: Luminescence Cell-Based/Microorganism Confirmation at Dose of Inhibitors of Trypanosoma cruzi Infection. [Related pubchem assays: 1885, 1968 ]. It counts as functional.
In assay [9] the target is T2, CAAX prenyl protease 2 (Homo sapiens, UniProt Q9Y256).
T2 sequence (Q9Y256 whole entry): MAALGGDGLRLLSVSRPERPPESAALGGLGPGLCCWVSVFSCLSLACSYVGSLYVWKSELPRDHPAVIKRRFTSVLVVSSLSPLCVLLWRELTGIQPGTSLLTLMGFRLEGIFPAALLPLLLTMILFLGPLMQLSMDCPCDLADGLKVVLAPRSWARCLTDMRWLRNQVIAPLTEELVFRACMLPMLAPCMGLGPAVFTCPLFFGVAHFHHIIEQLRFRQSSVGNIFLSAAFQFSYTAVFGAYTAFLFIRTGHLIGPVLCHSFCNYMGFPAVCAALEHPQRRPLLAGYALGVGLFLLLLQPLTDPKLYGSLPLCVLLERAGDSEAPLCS
The experiment in a line: human Rce1 protease inhibitors, dose response, biochemical, yeast membranes, quenched-peptide fluorescence, cherry-pick (AID 588849).

The target in assay [10] is CAAX prenyl protease 1 (Saccharomyces cerevisiae S288c, UniProt P47154). The assay can be described thus: Ste24 protease inhibitors, dose response, biochemical, S. cerevisiae, plate reader, cherry-pick (AID 488815).
Assay [11] in a line: growth induction of Burl-1 ts yeast mutant, dose response, counter-screen for SUMOylation pathway inhibitor project, whole organism, S. cerevisiae, luminescence (AID 463199). It counts as functional.
Assay [12] concerns Jurkat. The assay can be described thus: SAR Analysis of small molecule inhibitors of […] specific antigen receptor-induced NF-kB activation in a Jurkat cell line using a luminescence assay - Set 3. [Related pubchem assays (depositor defined):AID435022, AID435025, AID465]. It counts as functional, cell-based. The conditions noted are these: Homo sapiens.
The test system of assay [13] is HEK293. The assay can be described thus: cytotoxicity in HEK293T NF-kB-Luc cells, SAR follow-up, cytotoxicity control for NF-kB activator project, cell-based, resazurin fluorescence (AID 493251). It counts as functional. The note with it: Homo sapiens. (Alamar Blue is a resazurin reagent that responds to reducing activity.)
Assay [14] relates to HEK293. The experiment in a line: SAR Analysis of small molecule inhibitors of B-cell specific antigen receptor-induced NF-kB activation in a HEK-293T cell line using a luminescence assay - Set 2. [Related pubchem assays (depositor defined):AID435022, AID435025, AID489021]. Format: functional, cell-based. The note with it: Homo sapiens.
Assay [15] addresses ATP-dependent molecular chaperone HSP82 (Candida albicans (strain WO-1) (Yeast), UniProt C4YTQ8). The assay can be described thus: loss of DOC-induced GRE-beta-galactosidase reporter signal, dose response, Hsp90 inhibitor project, S. cerevisiae, luminescence (AID 2400).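 Further: beta-galactosidase luminescence from glucocorticoid response element reporter as proxy for Hsp90 function; inhibitor potency where signal loss means Hsp90 inhibition.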 It counts as functional, cell-based.
For assay [16], the system named is INS1. The assay can be described thus: beta cell apoptosis inhibitors, cytokine rescue, dose response, luminescence, retest (AID 449756).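 Further: cell death triggered by IL-1 beta plus TNF-alpha plus IFN-gamma mixture; protective hits raise ATP signal compared with cytokine alone wells.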 The note with it: Rattus norvegicus. Format: functional, cell-based.
In assay [17] the target is T3, Serine/threonine-protein phosphatase (Candida dubliniensis (strain CD36 / CBS 7987 / NCPF 3949 / NRRLY-17841) (Yeast), UniProt B9W6M3).
T3 sequence (B9W6M3 whole entry): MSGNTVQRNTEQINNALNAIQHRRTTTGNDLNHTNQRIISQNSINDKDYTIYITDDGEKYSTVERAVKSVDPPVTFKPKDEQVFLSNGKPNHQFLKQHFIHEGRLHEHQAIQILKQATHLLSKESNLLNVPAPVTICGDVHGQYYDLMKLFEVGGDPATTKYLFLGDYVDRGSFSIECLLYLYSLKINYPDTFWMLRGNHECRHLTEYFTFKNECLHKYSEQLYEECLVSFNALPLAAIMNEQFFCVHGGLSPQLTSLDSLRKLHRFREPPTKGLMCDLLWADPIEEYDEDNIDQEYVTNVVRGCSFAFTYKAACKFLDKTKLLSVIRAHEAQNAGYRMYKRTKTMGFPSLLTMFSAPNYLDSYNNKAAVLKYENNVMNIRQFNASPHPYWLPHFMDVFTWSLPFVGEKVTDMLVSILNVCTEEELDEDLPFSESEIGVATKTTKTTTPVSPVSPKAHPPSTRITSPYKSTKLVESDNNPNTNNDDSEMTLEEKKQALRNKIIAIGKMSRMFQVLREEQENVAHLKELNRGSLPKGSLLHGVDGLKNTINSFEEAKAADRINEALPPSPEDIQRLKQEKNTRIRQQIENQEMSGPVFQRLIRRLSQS
The experiment in a line: Fluorescence Cell-Based Secondary Assay to Identify Inhibitors of Calcineurin. [Related pubchem assays (depositor defined):AID1979, AID2007]. Format: functional.

Assay [18] in a line: NIH-3T3 fibroblast cytotoxicity, dose response, cytotoxicity control, cell-based, fluorescence, Alamar Blue, secondary assay (AID 2327).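 Further: NIH-3T3 mouse fibroblasts cultured with fluconazole at 8 µg/mL.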 Format: functional.
Assay [19] has as its target E3 ubiquitin-protein ligase Mdm2 (Homo sapiens, UniProt Q00987). The experiment in a line: enhancers of MDM2-luciferase reporter signal, concentration-effect titration, project on inhibitors of MDM2 ubiquitin ligase, cellular assay, luminescent readout, 384-well plate format (AID 1394).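 Further: MDM2 E3 inhibitors raise luminescence so EC50 is for signal enhancement.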 It counts as functional. For orientation: Reporter assays use an easily measured gene product as a stand-in for the process of interest.

Assay [20] in a line: HepG2 cell cytotoxicity, dose response, cytotoxicity control for Shn3 inhibitor project, CellTiter-Glo, cherry-picked (AID 624134). Format: functional, cell-based.
Assay [21] addresses T3, Serine/threonine-protein phosphatase. The experiment in a line: calcineurin pathway inhibitors in yeast reporter, dose response, S. cerevisiae, CDRE-lacZ, luminescence, secondary (AID 2388).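 Further: yeast reporter cells carrying a calcineurin-responsive lacZ construct stimulated with calcium chloride; luminescent beta-galactosidase reporter signal in whole cells rather than isolated phosphatase activity; potency for inhibition where a drop in reporter signal means calcineurin blockade.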 It counts as functional, cell-based.
Assay [22] is described as follows: C. albicans growth with fluconazole, confirmation, fluorescence, retest (AID 2467). It counts as functional, cell-based.
Assay [23] concerns the target Heat shock protein HSP 90-alpha (Homo sapiens, UniProt P07900). It counts as functional, organism-based.
Assay [24] can be described thus: NIH-3T3 fibroblast cytotoxicity, dose response, cytotoxicity control for antifungal single agent project, cell-based, Alamar Blue, dry powder (AID 602188). Format: functional.
The subject of assay [25] is HEK293. The experiment in a line: inhibitors of LMP1-driven NF-kB reporter, dose response, cell-based, HEK293, luciferase, cherry-pick (AID 588343). The conditions noted are these: Homo sapiens. It counts as functional.
A short description of assay [26]: Shn3 3'UTR reporter inhibitors, dose response, cell-based, Clone20 osteoblasts, firefly luciferase, cherry-picked (AID 624132).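 Further: firefly luciferase luminescence from reporter carrying the Shn3 3'UTR in osteoblasts.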 It counts as functional.
Assay [27] has as its target T4, Estrogen receptor (Homo sapiens, UniProt P03372).
T4 sequence (P03372 whole entry): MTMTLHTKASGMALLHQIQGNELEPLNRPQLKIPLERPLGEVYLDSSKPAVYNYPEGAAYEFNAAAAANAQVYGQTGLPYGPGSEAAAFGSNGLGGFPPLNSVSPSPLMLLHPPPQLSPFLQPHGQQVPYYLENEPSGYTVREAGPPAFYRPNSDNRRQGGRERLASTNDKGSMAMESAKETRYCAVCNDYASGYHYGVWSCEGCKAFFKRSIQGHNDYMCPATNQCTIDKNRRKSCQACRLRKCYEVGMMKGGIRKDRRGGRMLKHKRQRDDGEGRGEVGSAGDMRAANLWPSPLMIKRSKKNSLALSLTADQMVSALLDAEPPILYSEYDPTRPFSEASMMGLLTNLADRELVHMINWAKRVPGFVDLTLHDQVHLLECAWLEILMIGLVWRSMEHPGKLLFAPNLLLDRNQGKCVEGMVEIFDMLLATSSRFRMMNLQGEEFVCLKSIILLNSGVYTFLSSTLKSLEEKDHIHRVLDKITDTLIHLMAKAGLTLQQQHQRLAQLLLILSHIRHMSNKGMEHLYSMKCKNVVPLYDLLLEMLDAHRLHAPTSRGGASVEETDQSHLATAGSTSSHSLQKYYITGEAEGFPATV
The assay can be described thus: potentiators of ERα–SRC-1 coactivator binding, dose response, biochemical, TR-FRET, ERα LBD (AID 737).

A short description of assay [28]: control 3'UTR Renilla luciferase suppression, dose response, counter-screen for Shn3 inhibitor project, cell-based, Clone20-Shn3RL, cherry-picked (AID 624133). It counts as functional.

E3 ubiquitin-protein ligase Mdm2, sequence (Q00987 whole entry): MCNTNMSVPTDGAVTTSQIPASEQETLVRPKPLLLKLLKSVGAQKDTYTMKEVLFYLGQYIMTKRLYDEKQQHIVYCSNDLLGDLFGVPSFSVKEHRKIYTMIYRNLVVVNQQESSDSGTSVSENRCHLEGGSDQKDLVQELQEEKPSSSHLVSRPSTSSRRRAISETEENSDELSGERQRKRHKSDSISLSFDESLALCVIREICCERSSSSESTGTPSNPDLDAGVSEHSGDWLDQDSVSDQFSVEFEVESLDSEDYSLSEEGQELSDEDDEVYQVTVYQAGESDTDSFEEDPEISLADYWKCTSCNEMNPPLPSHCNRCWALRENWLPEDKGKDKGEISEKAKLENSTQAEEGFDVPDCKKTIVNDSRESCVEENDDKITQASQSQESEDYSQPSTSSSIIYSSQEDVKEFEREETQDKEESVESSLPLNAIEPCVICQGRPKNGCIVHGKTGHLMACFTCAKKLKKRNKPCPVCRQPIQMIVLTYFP
ATP-dependent molecular chaperone HSP82, sequence (C4YTQ8 whole entry): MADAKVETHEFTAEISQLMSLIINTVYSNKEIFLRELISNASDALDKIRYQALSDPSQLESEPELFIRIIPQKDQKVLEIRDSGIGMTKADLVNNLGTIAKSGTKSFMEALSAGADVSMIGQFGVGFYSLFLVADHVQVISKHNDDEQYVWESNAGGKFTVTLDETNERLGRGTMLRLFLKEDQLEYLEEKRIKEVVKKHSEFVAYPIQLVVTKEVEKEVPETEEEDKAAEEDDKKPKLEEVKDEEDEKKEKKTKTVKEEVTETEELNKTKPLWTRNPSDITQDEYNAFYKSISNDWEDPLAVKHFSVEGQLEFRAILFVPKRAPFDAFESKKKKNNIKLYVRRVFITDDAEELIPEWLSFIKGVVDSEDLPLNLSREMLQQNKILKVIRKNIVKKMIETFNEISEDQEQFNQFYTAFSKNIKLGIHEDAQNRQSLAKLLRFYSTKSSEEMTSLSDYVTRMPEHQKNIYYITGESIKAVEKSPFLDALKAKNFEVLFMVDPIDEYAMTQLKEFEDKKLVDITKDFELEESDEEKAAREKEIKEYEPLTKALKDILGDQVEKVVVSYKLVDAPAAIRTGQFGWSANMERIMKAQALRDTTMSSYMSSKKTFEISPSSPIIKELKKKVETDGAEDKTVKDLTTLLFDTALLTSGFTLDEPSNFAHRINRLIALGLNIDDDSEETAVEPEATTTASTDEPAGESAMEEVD
CAAX prenyl protease 1, sequence (P47154 whole entry): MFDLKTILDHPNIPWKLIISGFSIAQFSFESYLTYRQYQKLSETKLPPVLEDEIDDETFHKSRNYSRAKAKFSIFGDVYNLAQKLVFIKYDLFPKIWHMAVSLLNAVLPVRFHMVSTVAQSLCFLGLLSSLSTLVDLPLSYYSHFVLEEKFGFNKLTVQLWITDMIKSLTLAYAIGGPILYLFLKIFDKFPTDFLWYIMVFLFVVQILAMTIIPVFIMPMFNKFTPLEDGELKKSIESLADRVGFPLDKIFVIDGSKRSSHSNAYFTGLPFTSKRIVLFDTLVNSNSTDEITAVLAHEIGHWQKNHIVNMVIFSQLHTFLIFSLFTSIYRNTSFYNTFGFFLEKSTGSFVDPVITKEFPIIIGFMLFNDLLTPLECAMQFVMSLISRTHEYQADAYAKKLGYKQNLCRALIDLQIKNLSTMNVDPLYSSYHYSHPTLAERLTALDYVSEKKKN
UDP-galactopyranose mutase, sequence (P9WIQ1 whole entry): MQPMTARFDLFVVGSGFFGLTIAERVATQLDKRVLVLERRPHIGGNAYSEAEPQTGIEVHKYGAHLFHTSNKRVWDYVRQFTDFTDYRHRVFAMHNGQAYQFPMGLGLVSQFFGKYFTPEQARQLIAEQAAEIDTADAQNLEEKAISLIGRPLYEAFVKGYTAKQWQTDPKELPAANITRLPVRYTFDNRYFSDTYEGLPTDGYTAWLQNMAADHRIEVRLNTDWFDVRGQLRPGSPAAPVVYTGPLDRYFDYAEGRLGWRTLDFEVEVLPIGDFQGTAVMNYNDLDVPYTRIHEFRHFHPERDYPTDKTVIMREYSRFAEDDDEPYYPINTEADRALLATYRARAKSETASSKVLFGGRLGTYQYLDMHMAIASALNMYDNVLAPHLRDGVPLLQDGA

With `Cc1cccc(N2C(=O)NC(=O)/C(=C/c3cc4c(cc3[N+](=O)[O-])OCO4)C2=O)c1`, the EC50 in assay [1] and in [2] was > 99 µM (inactive) throughout. The AC50 (commonly the concentration giving half of the maximal activity seen) in assay [3] is 45 µM (active).
As to `CC(C)Oc1cccc(C(=O)C2CCCN(Cc3cnc(N4CCCC4)s3)C2)c1` (stereo not drawn), the EC50 (commonly the concentration needed to bring the measured effect to its halfway point) in assay [4] is 0.607 µM (active); in [5], 63.8 µM (active); in assay [6], 0.14 µM (active); in [7], > 60 µM (not active); in assay [8] it was 0.606 µM (active).
`CCOc1cccc(-c2nn(-c3ccccc3)cc2/C=C(/C#N)C(=O)NCCCn2ccnc2)c1`: the AC50 in assay [9] was 22.3 µM (active); in assay [10], 7.93 µM (active).
Consider `O=C1CC(c2ccccc2)C(=O)N1c1cccc(O)c1` (stereo not drawn), for which the concentration at half-maximal activity (AC50) in [11] was 53.6 µM (active).
For the molecule `CCOc1ccccc1NC(=O)CCc1nc(-c2ccc(C(C)(C)C)cc2)no1`, the IC50 – broadly, the concentration needed to halve the response being measured – in assay [12] was 1.02 µM (active); in assay [13], > 80 µM (inactive); in [14] it was 0.46 µM (active).
As to `O=C(Nc1nc(-c2ccccn2)cs1)c1ccc(Br)s1`, the EC50 in [15] is 4.31 µM (active); in assay [17], 15.7 µM (active); in assay [18] it was > 160 µM (inactive); in [19], 22.7 µM (not active); in assay [21], > 180 µM (inactive); in assay [22], 1.81 µM (active). In addition, the EC50 in [27] is given as 24.5 µM (not active). In addition, the AC50 in [16] is 1.03 µM (active); in [20] it was 3.78 µM (active); in [23], 1.83 µM (active); in [24], 0.991 µM (active); in [25] it was 0.637 µM (active); in [26], 1 µM (active). In addition, the AC50 in assay [28] is 0.743 µM (active).
